Where a SMILES comes first, the peptide text is derived from it. [ ]: non-standard residue; d: D form. The star is where a group is joined. Hydrocinnamoyl = O=C(CCc1ccccc1)*; Nle = CCCC[C@H](N)C(=O)O; Ac5c = NC1(C(=O)O)CCCC1; Deg = CCC(N)(CC)C(=O)O
Legend:
[1] = target: T1, Calpain-1 catalytic subunit (Sus scrofa, UniProt P35750); test: Inhibition of pig erythrocyte mu-calpain
T1 sequence (P35750 whole entry): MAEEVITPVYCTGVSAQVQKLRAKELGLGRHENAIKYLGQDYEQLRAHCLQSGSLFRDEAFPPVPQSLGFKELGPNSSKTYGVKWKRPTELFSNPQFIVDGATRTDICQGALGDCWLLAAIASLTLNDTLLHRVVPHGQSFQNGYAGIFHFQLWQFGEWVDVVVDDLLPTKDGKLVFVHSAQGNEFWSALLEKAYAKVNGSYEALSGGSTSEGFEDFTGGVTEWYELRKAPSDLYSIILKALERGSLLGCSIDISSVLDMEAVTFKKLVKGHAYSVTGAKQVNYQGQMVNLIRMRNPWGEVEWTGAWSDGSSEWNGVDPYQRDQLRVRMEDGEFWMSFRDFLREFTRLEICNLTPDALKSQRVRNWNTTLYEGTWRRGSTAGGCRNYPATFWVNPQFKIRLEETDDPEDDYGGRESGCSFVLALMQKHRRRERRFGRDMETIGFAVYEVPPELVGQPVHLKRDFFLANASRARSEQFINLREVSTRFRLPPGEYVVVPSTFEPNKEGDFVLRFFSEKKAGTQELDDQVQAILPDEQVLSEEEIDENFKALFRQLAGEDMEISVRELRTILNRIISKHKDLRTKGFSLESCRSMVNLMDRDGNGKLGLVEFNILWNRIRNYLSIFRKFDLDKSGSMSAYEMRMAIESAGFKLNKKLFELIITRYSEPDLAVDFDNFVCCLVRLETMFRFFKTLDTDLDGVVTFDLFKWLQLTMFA

Cathepsin B = Cathepsin B (Homo sapiens, UniProt P07858); test: Inhibition of human liver cathepsin B
[2] = Selectivity ratio of Ki for human liver cathepsin B to Ki for pig erythrocyte mu-calpain

Structure (SMILES) | Ki [1] | Ki (Cathepsin B) | Selectivity ratio [2]
CCCC[C@@H](C=O)NC(=O)[C@H](CC(C)C)NC(=O)[C@H](CC(C)C)NC(C)=O (Ac-Leu-Leu-[Nle]-aldehyde) | 190 nM | 150 nM | 
O=C[C@H](Cc1ccccc1)NC(=O)C1(NC(=O)CCc2ccccc2)CCCC1 (Hydrocinnamoyl-[Ac5c]-Phe-aldehyde) | 1940 nM | 880 nM | 0.45
CCC(CC)(NC(=O)CCc1ccccc1)C(=O)N[C@H](C=O)Cc1ccccc1 (Hydrocinnamoyl-[Deg]-Phe-aldehyde) | 80 nM | 2910 nM | 36.4

— ChEMBL document CHEMBL1139408, “Synthesis and calpain inhibitory activity of peptidomimetic compounds with constrained amino acids at the P2 position” (Bioorg Med Chem Lett, 2008)
